This passage reports melting point results from patent publication US6534496B1, “Thermogenic composition and benzazepine thermogenics” (Takeda Chemical Industries, Inc., priority 1997, dated 2003).

Counter-ions that a name gives are not always drawn.

As for `O=C(CCC1CCN(Cc2ccncc2)CC1)c1ccc2c(c1)CN(Cc1ccccc1)CCO2` (as salt: hydrochloride), the melting point was in the range of 243 to 245 °C. Consider `O=C(CCCC1CCN(Cc2cccc(Cl)c2)CC1)c1ccc2c(c1)CCN(Cc1ccccc1)CC2` (as salt: hydrochloride), for which the melting point is 230 to 234 °C (dec.). In the case of `O=C(CCC1CCN(Cc2cc(C(F)(F)F)cc(C(F)(F)F)c2)CC1)c1ccc2c(c1)CN(Cc1ccccc1)CCO2` (as salt: hydrochloride) it was 234 to 236 °C; in that of `CNC(=O)Nc1ccccc1CN1CCC(CCCC(=O)c2ccc3c(c2)CCN(Cc2ccccc2C)CC3)CC1` (as salt: hydrochloride), 176 to 189 °C (dec.); in that of `Cc1ccccc1CN1CCC(CCC(=O)c2ccc3c(c2)CN(Cc2ccccc2)CCO3)CC1` (as salt: hydrochloride), 232 to 234 °C. As for `O=C(CCC1CCN(Cc2cccc(C(F)(F)F)c2)CC1)c1ccc2c(c1)CN(Cc1ccc(F)cc1)CCO2` (as salt: hydrochloride), the figure is 225 to 227 °C. As for `O=C(CCC1CCN(Cc2ccccc2Cl)CC1)c1ccc2c(c1)CN(Cc1ccc(F)cc1)CCO2` (as salt: hydrochloride), the melting point was in the range of 227 to 229 °C. `Cc1cccc(CN2CCC(CCC(=O)c3ccc4c(c3)CN(Cc3ccccc3)CCO4)CC2)c1` (as salt: hydrochloride) [Example 4, 3-[1-[(3-Methylphenyl)methyl]-4-piperidinyl]-1-[4-(phenylmethyl)-2,3,4,5-tetrahydro-1,4-benzoxazepin-7-yl]-1-propanone Dihydrochloride] displayed a melting point of 212 to 214 °C. Compound `O=C(CCC1CCN(Cc2ccc(F)cc2)CC1)c1ccc2c(c1)CN(Cc1ccccc1)CCO2` (as salt: hydrochloride) [Example 8, 3-[1-[(4-Fluorophenyl)methyl]-4-piperidinyl]-1-[4-(phenylmethyl)-2,3,4 5-tetrahydro-1,4-benzoxazepin-7-yl]-1-propanone Dihydrochloride] registered a melting point of 212 to 214 °C. In the case of `O=C(CCC1CCN(Cc2ccccc2C(F)(F)F)CC1)c1ccc2c(c1)CN(Cc1ccccc1)CCO2` (as salt: hydrochloride) [Example 12, 1-[4-(Phenylmethyl)-2,3,4,5-tetrahydro-1,4-benzoxazepin-7-yl]-3-[1-[(2-trifluoromethylphenyl)methyl]-4-piperidinyl]-1-propanone Dihydrochloride] it was 223 to 225 °C; in that of `O=C(CCCC1CCNCC1)c1ccc2c(c1)CCN(Cc1ccccc1)CC2` (as salt: hydrochloride) [Example 26, 1-[3-(Phenylmethyl)-2,3,4,5-tetrahydro-1H-3-benzazepin-7-yl]-4-(4-piperidinyl)-1-butanone Dihydrochloride], 201 to 203 °C; in that of `O=C(CCC1CCN(Cc2ccc(Cl)cc2)CC1)c1ccc2c(c1)CCN(Cc1ccc(F)cc1)CC2` (as salt: hydrochloride) [Example 41, 3-[1-[(4-Chlorophenyl)methyl]-4-piperidinyl]-1-[3-[(4-fluorophenyl)methyl]-2,3,4,5-tetrahydro-1H-3-benzazepin-7-yl]-1-propanone Dihydrochloride], 219 to 222 °C (dec.). Regarding `CN1CCC(CCC(=O)c2ccc3c(c2)CCN(Cc2ccc(F)cc2)CC3)CC1` (as salt: hydrochloride) [Example 42, 1-[3-[(4-Fluorophenyl)methyl]-2,3,4,5-tetrahydro-1H-3-benzazepin-7-yl]-3-(1-methyl-4-piperidinyl)-1-propanone Dihydrochloride], the melting point is 213 to 216 °C (dec.). For `CCOC(=O)C(C)(C)c1ccc(CN2CCC(CCC(=O)c3ccc4c(c3)CCN(Cc3ccc(F)cc3)CC4)CC2)cc1` (as salt: hydrochloride) [Example 43, Ethyl 2-methyl-2-[4-[[4-[3-[3-[(4-fluorophenyl)methyl]-2,3,4,5-tetrahydro-1H-3-benzazepin-7-yl]-3-oxopropyl]-1-piperidinyl]methyl]phenyl]propionate Dihydrochloride], the melting point was 228 to 231 °C (dec.).
